# Measurements from publication PMC9229919, “4-Aminoquinoline-Based Adamantanes as Potential Anticholinesterase Agents in Symptomatic Treatment of Alzheimer’s Disease” (Pharmaceutics, 2022).
# Like-named read-outs stand apart in the source and are kept apart here.
# Experiments:
# recombinant human AChE = molecular target: T1, recombinant human AChE (Homo sapiens, UniProt P22303); assay: biochemical; assay type: biochemical
# T1 construct: gift of Dr Florian Nachon (Armed Forces Biomedical Research Institute, Brétigny-sur-Orge, France)
# T1 sequence (P22303 32-614): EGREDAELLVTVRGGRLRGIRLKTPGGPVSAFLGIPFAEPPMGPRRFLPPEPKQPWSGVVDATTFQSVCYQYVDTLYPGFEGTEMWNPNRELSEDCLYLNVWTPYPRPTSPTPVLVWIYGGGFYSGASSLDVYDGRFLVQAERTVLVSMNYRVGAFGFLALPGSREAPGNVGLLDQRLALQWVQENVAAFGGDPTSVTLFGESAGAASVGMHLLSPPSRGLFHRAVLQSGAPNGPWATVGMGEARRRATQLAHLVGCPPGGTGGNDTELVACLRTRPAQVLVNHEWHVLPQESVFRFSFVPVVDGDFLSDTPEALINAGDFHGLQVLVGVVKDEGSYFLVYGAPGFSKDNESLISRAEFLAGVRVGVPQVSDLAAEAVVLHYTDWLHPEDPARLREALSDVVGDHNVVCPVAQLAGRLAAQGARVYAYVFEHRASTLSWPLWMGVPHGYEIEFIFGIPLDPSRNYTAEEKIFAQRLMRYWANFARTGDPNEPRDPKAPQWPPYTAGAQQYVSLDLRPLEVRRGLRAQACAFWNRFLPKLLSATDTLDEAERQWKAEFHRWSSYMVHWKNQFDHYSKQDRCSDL
# Description: (§1) Acetylthiocholine (ATCh) and 5,5′-dithiobis(2-nitrobenzoic acid) (DTNB) were purchased from Sigma-Aldrich, St. Louis, MO, USA. ATCh was dissolved in water and DTNB in 0.1 M sodium phosphate buffer (pH 7.4). The 4-aminoquinilines were dissolved in DMSO and all further dilutions were made in water.
# (§2) The sources of AChE and BChE were purified human BChE and recombinant human AChE that was kindly provided by Dr Florian Nachon (Département de Toxicologie, Armed Forces Biomedical Research Institute, Brétigny-sur-Orge, France). […] The enzymes were diluted in sodium phosphate buffer 0.1 M (pH 7.4) containing 0.1% BSA.
# (§3) Enzyme activities were measured spectrophotometrically using a slightly modified Ellman method, as described earlier. […] At least three inhibitor concentrations for each substrate concentration were used in at least three experiments. The apparent inhibition constant (Ki,app) was calculated using the Hunter–Downs Equation and linear regression analysis:(1) Ki,app=vi·i/v0−vi=Ki+Ki/KS·s where the y-intercept determines the enzyme-inhibitor dissociation constant (Ki), while the x-intercept determines the enzyme-substrate dissociation constant, KS.
# (§4) The Hunter–Downs Equation was used under the assumption that the substrate, due to relatively low concentrations used in experiments, would bind only to the catalytic site of the enzymes, while the inhibitors would bind to both CAS and/or PAs. This allowed the type of inhibition to be determined from Ki,app vs. substrate concentration ([S]) dependency on Hunter–Downs plot.
# (§5) The final content of DMSO in the measurements was up to 0.2%. […] The measurements were performed at 25 °C on a Tecan Infinite M200Pro plate reader (Tecan Austria GmbH, Salzburg, Austria).
# purified human BChE = molecular target: T2, purified human BChE (Homo sapiens, UniProt P06276); assay: biochemical; assay type: biochemical
# T2 construct: possibly also a gift of Dr Florian Nachon (the sentence is ambiguous)
# T2 sequence (P06276 29-602): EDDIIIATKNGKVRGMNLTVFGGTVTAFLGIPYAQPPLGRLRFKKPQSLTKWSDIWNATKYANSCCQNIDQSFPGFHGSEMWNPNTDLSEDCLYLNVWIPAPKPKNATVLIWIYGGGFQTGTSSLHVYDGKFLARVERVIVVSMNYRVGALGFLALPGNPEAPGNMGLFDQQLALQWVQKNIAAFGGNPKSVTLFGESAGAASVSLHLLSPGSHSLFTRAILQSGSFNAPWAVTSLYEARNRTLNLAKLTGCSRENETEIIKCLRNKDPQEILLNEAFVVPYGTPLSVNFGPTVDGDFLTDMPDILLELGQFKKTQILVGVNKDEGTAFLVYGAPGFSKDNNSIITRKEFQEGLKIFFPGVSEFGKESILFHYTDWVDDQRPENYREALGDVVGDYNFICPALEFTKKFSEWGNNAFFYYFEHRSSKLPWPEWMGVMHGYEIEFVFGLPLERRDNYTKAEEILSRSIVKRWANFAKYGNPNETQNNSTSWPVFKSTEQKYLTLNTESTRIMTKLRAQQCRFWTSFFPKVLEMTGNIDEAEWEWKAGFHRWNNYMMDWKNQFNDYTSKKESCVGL
# Description: as §1, §2, §3, §4, §5
# [1] = Ferric reducing antioxidant power (FRAP) assay; conditions: mean ± standard error of three experiments;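 further: expressed as µM Fe2+ equivalents from an FeSO4·7H2O standard curve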
# Description: . All the chemicals were purchased from Sigma-Aldrich (St. Louis, MO, USA), except for tripyridyltriazine (TPTZ) (Fluka, Buchs, Switzerland) and FeCl3 (Kemika, Zagreb, Croatia). The FRAP assay was assessed according to Benzie and Strain [53] with slight procedure adjustments for 96-well microplates. The method is based on the reduction of the ferric-tripyridyltriazine (Fe^3+-TPTZ) complex to ferrous tripyridyltriazine (Fe^2+-TPTZ) by the action of electron-donating compounds at a low pH. Briefly, the FRAP reagent was prepared by mixing acetate buffer (300 mM, pH 3.6), a solution of 10 mM TPTZ in 40 mM HCl, and 20 mM FeCl3 at 10:1:1 (v/v/v). Then, 240 μL of FRAP reagent and 10 μL of sample solution were added to a 96-well plate and incubated at 37 °C for 60 min. The absorbance was measured at 593 nm using a microplate reader (Infinite M200PRO, Tecan Austria GmbH, Salzburg, Austria) against a blank. The reducing capacity was determined for 10 and 100 µM compound concentrations. […]. All measurements were performed in three independent experiments. FRAP values, denominating the reduction of ferric-tripyridyltriazine (Fe^3+-TPTZ) to ferrous tripyridyltriazine (Fe^2+-TPTZ) by 4-aminoquinolines were calculated based on a standard curve obtained using […].
# [2] = Reverse-phase thin-layer chromatographic lipophilicity (RF, RM0); assay type: physicochemical; conditions: for RM0: intercept of RM = RM0 + bC; for b: slope of RM = RM0 + bC
# Description: Chromatographic determination of lipophilicity
# Merck, Darmstadt, Germany). The mobile phase contained organic modifier (methanol, acetone or dioxane), water and hydrochloric acid.
# Methanol was varied in the range […]
# with an increment of 10%. […]
# before chromatogram development. The solvent developing distance was 4.5 cm. Detection of […]
# All experiments were performed at ambient temperature (22±2 °C). Retention parameters were calculated as previously described. […]
# [3] = Acetone/Water/Hydrochloric acid (conc.)
# [4] = Dioxane/Water/Hydrochloric acid (conc.)
# [5] = Methanol/Water/Hydrochloric acid (conc.)
smiles,measurement,setting,value
Clc1ccc2c(NCCNCCC34CC5CC(CC(C5)C3)C4)ccnc2c1 [Compound 8],IS,"recombinant human AChE; IS = Ki(BChE)/Ki(AChE), IS > 1 selective to AChE",0.6
same,Ki,"recombinant human AChE; log (Ki/µM AChE), read-out: Y Measured 1 log(ki)Ache (converted)",1.6 µM
same,Ki,"recombinant human AChE; ± standard error, 25 °C, ATCh substrate, read-out: Ki AChE",1.6 ± 0.1 µM
same,Ki,"purified human BChE; logarithm of Ki in µM, BChE, dependent variable of the QSAR model, read-out: Y Measured 2 log(ki)Bche, log (Ki/µM BChE) (converted)",0.92 µM
same,Ki,"purified human BChE; ± standard error, 25 °C, ATCh substrate, read-out: Ki BChE",0.92 ± 0.07 µM
same,FRAP,[1]; 10 µM compound,33 ± 12 µM
same,FRAP,[1]; 100 µM compound,62 ± 7 µM
same,RM0,[2]; [3],2.227
same,b,[2]; [3],3.421
same,RM0,[2]; [4],1.144
same,b,[2]; [4],2.1084
same,RM0,[2]; [5],2.713
same,b,[2]; [5],3.446
same,"RF, Methanol/Water/Hydrochloric acid (conc.), mobile phase I","[2]; RP-18 silica, I = 90%MeOH/5%H2O/5%HCl",0.69
same,"RF, Dioxane/Water/Hydrochloric acid (conc.), mobile phase II","[2]; RP-18 silica, II = 80%Dioxane/15%H2O/5%HCl",0.74
same,"RF, Methanol/Water/Hydrochloric acid (conc.), mobile phase II","[2]; RP-18 silica, II = 85%MeOH/10%H2O/5%HCl",0.63
same,"RF, Acetone/Water/Hydrochloric acid (conc.), mobile phase III","[2]; RP-18 silica, III = 70%AC/25%H2O/5%HCl",0.55
same,"RF, Dioxane/Water/Hydrochloric acid (conc.), mobile phase III","[2]; RP-18 silica, III = 70%Dioxane/25%H2O/5%HCl",0.68
same,"RF, Methanol/Water/Hydrochloric acid (conc.), mobile phase III","[2]; RP-18 silica, III = 80%MeOH/15%H2O/5%HCl",0.45
same,"RF, Dioxane/Water/Hydrochloric acid (conc.), mobile phase IV","[2]; RP-18 silica, IV = 60%Dioxane/35%H2O/5%HCl",0.66
same,"RF, Acetone/Water/Hydrochloric acid (conc.), mobile phase IV","[2]; RP-18 silica, IV = 65%AC/30%H2O/5%HCl",0.5
same,"RF, Methanol/Water/Hydrochloric acid (conc.), mobile phase IV","[2]; RP-18 silica, IV = 75%MeOH/20%H2O/5%HCl",0.47
same,"RF, Acetone/Water/Hydrochloric acid (conc.), mobile phase IX","[2]; RP-18 silica, IX = 40%AC/55%H2O/5%HCl",0.08
same,"RF, Methanol/Water/Hydrochloric acid (conc.), mobile phase IX","[2]; RP-18 silica, IX = 50%MeOH/45%H2O/5%HCl",0.08
same,"RF, Dioxane/Water/Hydrochloric acid (conc.), mobile phase V","[2]; RP-18 silica, V = 50%Dioxane/45%H2O/5%HCl",0.47
same,"RF, Acetone/Water/Hydrochloric acid (conc.), mobile phase V","[2]; RP-18 silica, V = 60%AC/35%H2O/5%HCl",0.39
same,"RF, Methanol/Water/Hydrochloric acid (conc.), mobile phase V","[2]; RP-18 silica, V = 70%MeOH/25%H2O/5%HCl",0.39
same,"RF, Dioxane/Water/Hydrochloric acid (conc.), mobile phase VI","[2]; RP-18 silica, VI = 40%Dioxane/55%H2O/5%HCl",0.28
same,"RF, Acetone/Water/Hydrochloric acid (conc.), mobile phase VI","[2]; RP-18 silica, VI = 55%AC/40%H2O/5%HCl",0.34
same,"RF, Methanol/Water/Hydrochloric acid (conc.), mobile phase VI","[2]; RP-18 silica, VI = 65%MeOH/30%H2O/5%HCl",0.28
same,"RF, Acetone/Water/Hydrochloric acid (conc.), mobile phase VII","[2]; RP-18 silica, VII = 50%AC/45%H2O/5%HCl",0.29
same,"RF, Methanol/Water/Hydrochloric acid (conc.), mobile phase VII","[2]; RP-18 silica, VII = 60%MeOH/35%H2O/5%HCl",0.18
same,"RF, Acetone/Water/Hydrochloric acid (conc.), mobile phase VIII","[2]; RP-18 silica, VIII = 45%AC/50%H2O/5%HCl",0.21
same,"RF, Methanol/Water/Hydrochloric acid (conc.), mobile phase VIII","[2]; RP-18 silica, VIII = 55%MeOH/40%H2O/5%HCl",0.13
